Like-named read-outs stand apart in the source and are kept apart here.
Experiments:
[1] = biological target: T1, Peroxisome proliferator-activated receptor γ (Homo sapiens, UniProt P37231); assay: cell-based; details: PPARγ bioassay, dosing range all; for EC10, linear: linear model; for logEC10: log-logistic model
T1 sequence (P37231 238-505 limits assumed): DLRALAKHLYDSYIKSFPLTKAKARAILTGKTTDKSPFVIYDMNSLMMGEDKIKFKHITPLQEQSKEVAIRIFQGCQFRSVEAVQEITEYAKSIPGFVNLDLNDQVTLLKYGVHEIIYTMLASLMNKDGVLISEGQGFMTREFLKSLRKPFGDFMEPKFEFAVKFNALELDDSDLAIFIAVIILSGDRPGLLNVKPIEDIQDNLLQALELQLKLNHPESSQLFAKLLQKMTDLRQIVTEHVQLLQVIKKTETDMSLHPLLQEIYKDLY
Excerpt: All bioassay media components and the ERα-UAS-bla GripTite and PPARγ-UAS-bla cells were obtained from Thermo Fisher Scientific (Waltham, MA, USA). AREc32 reporter gene cells based on MCF7 were provided by C. Roland Wolf (Cancer Research UK); AhR CALUX cells (H4L7.5c2 derived from H4IIe) were provided by Michael Denison (UC Davis, USA); and SH-SY5Y cells were purchased from Sigma-Aldrich.
(§1) Cell culture conditions and bioassay protocols including response detection are provided in Text S2.1–2.4 and Table S3. − Cell viability was determined from cell confluency using an IncuCyte S3 Live-Cell Analysis System (Sartorius AG, Essen, Germany) before and after exposure, except for SH-SY5Y cells (live–dead staining with Nuclear Green LcS1 and propidium iodide, Abcam, UK). For metabolic activation experiments, cell viability was assessed using the ToxBLAzer DualScreen Kit (Thermo Fisher Scientific) to capture the remaining toxicity in ERα-UAS-bla GripTite after treatment with the aCYP catalyst (details in Text S2.4).
(§2) For ARE, the concentration that triggered an induction ratio of 1.5 (ECIR1.5) was used as the benchmark value, as detailed in Text S2.5. IC10 values also served as a threshold for data analysis in all assays; only concentrations below IC10 were considered when deriving EC10 or ECIR1.5.
The maximum efficacy (Emax%) refers to the maximum of the log–logistic concentration–response curve attained by test chemicals compared to the reference chemical’s maximum and was obtained for both ERα and PPARγ. […]
S2: Cell culture and bioassays
S2.1: Cell Culturing Conditions
All suppliers and sources are given in detail in SI-Excel S3. The bioassay media for the different assays were prepared as follows: Assay medium for ER alpha-UAS-bla GripTite (ERα) and […]
2% charcoal-stripped FBS, and 100 U/mL penicillin-streptomycin. […]
(§3) S2.2: Cell Seeding and Incubation. For all bioassays, cell suspensions in the respective assay medium were dispensed into each well of 384-well plates using a MultiFlo Dispenser (Biotek, (now Agilent), Winooski, VT, U.S.). After seeding, the plates were incubated at 37° C and 5% CO₂ for […]. The final cell densities and plate types were as follows: Black poly-D-lysine […]
6500 cells/well, ERα: 5000 cells/well. White 384-well plates with a clear bottom (Product No. […]
S2.3: Chemical Dosing and Assay Analysis Procedures.

[2] = test system: H4IIe (AhR CALUX); details: for IC10, linear: linear model fit; for IC10, H4IIe, AhR: H4IIe (AhR assay cells)
Method: as §1, §2
(§4) We measured the cytotoxicity of BPA and its alternatives in HEK293H (PPARγ), HEK293T (ERα), H4IIe (AhR CALUX), MCF7 (ARE/MMP), and differentiated SH-SY5Y cells (Table S6). […]
as §3
(§5) 6500 cells/well, ERα: 5000 cells/well. White 384-well plates with a clear bottom (Product No.
(§6) NYC, U.S.) for AhR: 3250 cells/well. Black Collagen I coated plates were used (Product No.
(§7) S2.3: Chemical Dosing and Assay Analysis Procedures. The dosing procedure and high-throughput assay workflow have been described in detail before. 9 The dosing concentrations […]
(§8) Stock solutions were then either added directly to the respective cell culture medium or evaporated under nitrogen, followed by replenishment with fresh medium. The final solvent content in each well was kept below 1% for methanol, 0% for acetonitrile.
(§9) Dosing plates were prepared as 11 -step serial dilutions using a Hamilton Microlab Star robotic system (Hamilton, Bonaduz, Switzerland), and chemicals were dosed in duplicates by transferring 10 μL twice from the dosing plates to the cell plates . After quantifying cell confluency as described in S2. 4., the exposed cells were incubated at 37° C and 5% CO₂ for an additional 24 h. All chemicals were tested in all assays with at least three independent […]
(§10) S2.4: Cell Viability Measurement s and bioanalytical protocols . The confluency as a measure of cell viability was determined with an IncuCyte S3 Live -Cell Analysis System (Sartorius AG, Essen, Germany). With this method the confluency of cells in a microscopy image are normalized to control wells without cells and compared before and after 24 hours of exposure.
(§11) This method has been described previously 13. […]

[3] = test system: HEK293H (PPARγ); details: for IC10, linear: linear model; for IC10, HEK293, PPARγ: cytotoxicity, HEK293 (PPARγ assay cells)
Method: as §1, §2, §4, §3, §5, §6, §7, §8, §9, §10, §11

[4] = test system: HEK293T (ERα); details: for IC10, HEK293, ERα: HEK293 (ERα assay cells)
Method: as §1, §2, §4, §3, §5, §6, §7, §8, §9, §10, §11

[5] = test system: MCF7 (ARE/MMP); details: for IC10, MCF7, ARE: MCF7, ARE readout; for IC10, MCF7, MMP: MCF7, MMP readout
Method: as §1, §2, §4, §3, §5, §6, §7, §8, §9, §10, §11

[6] = Bioassay AhR, cytotoxicity, dosing range all
[7] = Bioassay AhR, cytotoxicity, dosing range all, log-logistic model fit
[8] = PPARγ bioassay cytotoxicity, dosing range all
[9] = PPARγ bioassay cytotoxicity, dosing range all, log-logistic model
[10] = Bioassay ARE, cytotoxicity, dosing range all, linear model fit
[11] = Bioassay ARE, cytotoxicity, dosing range all, log-logistic model fit
[12] = MMP bioassay cytotoxicity, dosing range all, linear model
[13] = MMP bioassay cytotoxicity, dosing range all, log-logistic model
[14] = Bioassay ERα, cytotoxicity, dosing range all
[15] = Bioassay ERα, cytotoxicity, dosing range all, linear model fit
[16] = Bioassay ERα, cytotoxicity, dosing range all, log-logistic model fit
[17] = Bioassay ARE, cytotoxicity, dosing range all
[18] = MMP bioassay cytotoxicity, dosing range all

SMILES | EC10, linear [1] | logEC10 [1] | IC10, linear [2, 6] | logIC10 [2, 7] | IC10, H4IIe, AhR ([2]; cytotoxicity) [µM] | IC10, linear transformed [3, 8] | IC10, linear [3, 8] | logIC10 [3, 9] | IC10, linear [5, 10] | logIC10 [5, 11] | IC10, linear [5, 12] | logIC10 [5, 13] | IC10, HEK293, PPARγ [3] [µM] | IC10, HEK293, ERα ([4]; cytotoxicity) [µM] | IC10, linear transformed [5, 17] | IC10, linear transformed [5, 18] | IC10, MCF7, ARE ([5]; cytotoxicity) [µM] | IC10, MCF7, MMP ([5]; cytotoxicity) [µM] | further results
CC1(C)C(O)C(C)(C)C1O (racemic) [r-TMCD, 2,2,4,4-Tetramethyl-1,3-cyclobutanediol (racemate)] | no effect | no effect | 8.29E-03 | -2.04 | 8290 | 6.71E-03 | no cytotoxicity | no cytotoxicity | no cytotoxicity | no cytotoxicity | no cytotoxicity | no cytotoxicity | – | – | – | – | – | – | IC10, linear transformed [2, 6]: 9.14E-03; Toxic ratio (TR) TRAhR ([2]; against baseline cytotoxicity): 0.12; IC10, linear ([4]; ERα bioassay cytotoxicity, dosing range all, linear model): no cytotoxicity; logIC10 ([4]; ERα bioassay cytotoxicity, dosing range all, log-logistic model): no cytotoxicity
O=S(=O)(c1ccc(O)cc1)c1ccccc1O [2,4-BPS, 2,4'-Dihydroxydiphenyl sulfone] | no effect | no effect | – | – | – | – | – | – | – | – | – | – | – | – | – | – | – | – | Toxic ratio (TR) TRAhR ([2]; rat, 24 h): 3.11; logIC10 ([2]; rat, 24 h): -3.52; Toxic ratio (TR) TRPPARγ ([3]; human, 24 h): 2.23; logIC10 ([3]; human, 24 h): -3.73; Toxic ratio (TR) TRERα ([4]; human, 24 h): 1.27; logIC10 ([4]; human, 24 h): -3.36; Toxic ratio (TR) TRARE ([5]; human, 24 h): 0.77; Toxic ratio (TR) TRMMP ([5]; human, 24 h): 0.77; logIC10 ([5]; human, 24 h): -3.05
CC(C)(c1ccc(OCC2CO2)cc1)c1ccc(OCC2CO2)cc1 (stereo not drawn) [BADGE, Bisphenol A diglycidyl ether] | no effect | no effect | no cytotoxicity | no cytotoxicity | – | 1.49E-05 | no cytotoxicity | -4.62 | 3.62E-05 | -4.41 | 8.59E-05 | -4.10 | 24 | 18.8 | 3.85E-05 | 7.87E-05 | 38.5 | 78.7 | Toxic ratio (TR) TRPPARγ ([3]; against baseline cytotoxicity): 0.42; IC10, linear transformed [4, 14]: 1.08E-05; IC10, linear [4, 15]: no cytotoxicity; logIC10 [4, 16]: -4.73; Toxic ratio (TR) TRERα ([4]; against baseline cytotoxicity): 0.54; Toxic ratio (TR) TRARE ([5]; against baseline cytotoxicity, ARE readout): 0.61; Toxic ratio (TR) TRMMP ([5]; against baseline cytotoxicity, MMP readout): 0.30
O=S(=O)(c1ccc(O)cc1)c1ccc(O)cc1 [BPS, 4,4'-Sulfonyldiphenol] | 1.02E-05 | no effect | – | – | – | 3.12E-05 | 6.15E-04 | -3.22 | 1.31E-03 | -2.86 | 1.44E-03 | -2.92 | 603 | 520 | 1.39E-03 | 1.22E-03 | 1390 | 1220 | IC10, linear transformed ([4]; Bioassay ERα, cytotoxicity, dosing range high): 1.03E-04; IC10, linear ([4]; Bioassay ERα, cytotoxicity, dosing range high, linear model fit): 5.20E-04; logIC10 ([4]; Bioassay ERα, cytotoxicity, dosing range high, log-logistic model fit): -3.33; IC10, linear transformed ([4]; ERα bioassay cytotoxicity, dosing range low): 5.72E-05; IC10, linear ([4]; ERα bioassay cytotoxicity, dosing range low, linear model): no cytotoxicity; logIC10 ([4]; ERα bioassay cytotoxicity, dosing range low, log-logistic model): no cytotoxicity
Oc1ccc(C2(c3ccc(O)cc3)CCCCC2)cc1 [BPZ, 1,1'-Bis(4-hydroxyphenyl)cyclohexane] | – | – | 1.06E-04 | -4.08 | 83.8 | 4.22E-06 | – | -5.04 | 3.45E-05 | -4.14 | 3.30E-05 | -4.48 | 9.12 | 6.64 | 7.27E-05 | 3.28E-05 | 72.7 | 32.8 | IC10, linear transformed [2, 6]: 8.38E-05; IC10, linear transformed [4, 14]: 8.13E-06; IC10, linear [4, 15]: 6.53E-06; logIC10 [4, 16]: -5.18
CC(C)(c1cc(Br)c(O)c(Br)c1)c1cc(Br)c(O)c(Br)c1 [TBBPA, 3,3',5,5'-Tetrabromobisphenol A] | – | – | – | – | – | – | – | – | – | – | – | – | – | – | – | – | – | – | logIC10 ([2]; rat, 24 h): -3.80; IC10, linear [4]: no cytotoxicity; logIC10 ([4]; human, 24 h): -4.81
CC1(C)[C@H](O)C(C)(C)[C@H]1O [t-TMCD, trans-2,2,4,4-Tetramethyl-1,3-cyclobutanediol] | – | – | – | – | 8940 | – | – | – | – | – | – | – | – | – | – | – | – | – | Toxic ratio (TR) TRAhR ([2]; against baseline cytotoxicity): 0.11

Source: publication PMC12392461, “Beyond Estrogenicity: A Comparative Assessment of Bisphenol A and Its Alternatives in In Vitro Assays Questions Safety of Replacements” (Environmental Science & Technology, 2025)
